One data set relates to A549 (lung carcinoma). The data set can be described thus: Proliferation assay (MTT, 72 h) on A549. The class given is cell-based. As to conditions: Homo sapiens, A549 lung adenocarcinoma. How it is done:
(§1) Human carcinoma cell lines A549 (lung carcinoma), HeLa (cervical carcinoma), SW620 (colorectal adenocarcinoma, metastatic), and CFPAC-1 (pancreatic cancer, derived from metastatic: liver), normal human lung (WI38) and foreskin (HFF-1) fibroblasts were obtained from the American Type Culture Collection (ATCC). Cells were cultured in humidified atmosphere at 37 °C with 5% CO2. As growth medium, Dulbecco’s modified Eagle medium (DMEM) was used with the addition of foetal bovine serum (10%), L-glutamine (2 mM) and antibiotics: streptomycin (100 µg/ml) and penicillin (100 U/ml).
(§2) Cells were seeded onto 96-well microtiter plates at a seeding density of 3000 cells/well for carcinoma cell lines, and 5000 cells/well for normal human fibroblasts. The next day, cells were treated with test agents in five different concentrations (0.01–100 µM) and further incubated for 72 h. […] Following 72 h incubation, the MTT assay was performed and measured absorbances were transformed into percentage of cell growth as described previously. Results were obtained from three independent experiments. IC50 values were calculated using linear regression analysis and results were statistically analysed by ANOVA, Tukey post-hoc test (p < .05).

Data set [1] concerns SW620 (colorectal adenocarcinoma, metastatic). The experiment in a line: Proliferation assay (MTT, 72 h) on SW620. Type of data set: cell-based. As to conditions: Homo sapiens, SW-620. How it is done: as §1, §2
In data set [2] the test system is WI38 normal human lung fibroblasts. The data set can be described thus: Proliferation assay (MTT, 72 h) on normal lung fibroblasts WI38. The class given is cell-based. To be noted: WI-38, read-out: IC50 WI38/HFF-1 (WI38). On the procedure: as §1, §2
The subject of data set [3] is HeLa (cervical carcinoma). The experiment in a line: Proliferation assay (MTT, 72 h) on HeLa. Type of data set: cell-based. To be noted: Homo sapiens. On the procedure:
as §1, §2

Data set [4] deals with CFPAC-1 (ductal pancreatic adenocarcinoma). The data set can be described thus: Proliferation assay (MTT, 72 h) on CFPAC-1. The class given is cell-based. As to conditions: Homo sapiens. How it is done: as §1, §2

Structures are written as SMILES.

With `Fc1ccc(-n2cc(Cn3cnc4c(Cl)ncnc43)nn2)cc1` [Compound 4a, 6-Chloro-9-{[1–(4-fluorophenyl)-1 H-1,2,3-triazol-4-yl]methyl}-9 H-purine], the IC50 turned out to be 53.2 µM in the data set on A549 (lung carcinoma); 38.9 µM in data set [1]; 5.21 µM in data set [2]; 34.2 µM in data set [3]; 33.4 µM in data set [4].

As for `FC(F)(F)c1ccc(-n2cc(Cn3cnc4c(Cl)ncnc43)nn2)cc1` [Compound 4c, 6-Chloro-9-{[1-(4-(trifluoromethyl)phenyl)-1H-1,2,3-triazol-4-yl]methyl}-9H-purine], the IC50 with A549 (lung carcinoma) was determined as 15.9 µM; in data set [1] it was 14.7 µM; in data set [2], 0.75 µM; in data set [3] it was 12.3 µM; in data set [4], 7.9 µM.

The melting point is the temperature of the solid-liquid transition. In the case of `Fc1ccccc1-n1cc(Cn2cnc3c(Cl)ncnc32)nn1` [Compound 4d, 6-Chloro-9-{[1-(2-fluorophenyl)-1H-1,2,3-triazol-4-yl]methyl}-9H-purine], the melting point was in the range of 143 to 145 °C. Further, the IC50 in the data set with A549 (lung carcinoma) stood at 54.6 µM. For the same compound, the IC50 in data set [1] came out at 41.8 µM. Moreover, the IC50 in data set [2] was 23.9 µM. The compound further gave an IC50 in data set [3] of 33.2 µM. The compound also registered an IC50 in data set [4] of 31.1 µM.

As for `O=c1cc(Cn2cc(Cn3cnc4c(Cl)ncnc43)nn2)c2ccc(O)cc2o1` [Compound 4e, 4-{[4-((6-Chloro-9H-purin-9-yl)methyl)-1H-1,2,3-triazol-1-yl]methyl}-7-hydroxy-2H-chromen-2-one], the IC50 in the data set with A549 (lung carcinoma) was 89 µM; in data set [1], 92.5 µM; in data set [2], 6.58 µM; in data set [3] it was 58 µM; in data set [4], more than 100 µM.

Compound `FC(F)(F)c1ccc(-n2cc(Cn3cnc4c(Cl)nccc43)nn2)cc1` [Compound 5c, 4-Chloro-1-{[1-(4-(trifluoromethyl)phenyl)-1H-1,2,3-triazol-4-yl]methyl}-1H-imidazo[4,5-c]pyridine] yielded a melting point of 151 to 154 °C. The same compound gave an IC50 with A549 (lung carcinoma) of 9.43 µM. In data set [1], this compound came in with an IC50 of 11.8 µM. Also, in data set [2], the IC50 came to 5.21 µM. Moreover, the IC50 in data set [3] was determined as 22.5 µM. In addition, the IC50 in data set [4] is 7.39 µM.

`Fc1ccccc1-n1cc(Cn2cnc3c(Cl)nccc32)nn1` [Compound 5d, 4-Chloro-1-{[1–(2-fluorophenyl)-1H-1,2,3-triazol-4-yl]methyl}-1H-imidazo[4,5-c]pyridine]: the melting point is 124 to 127 °C. Also, in the data set with A549 (lung carcinoma), the IC50 was found to be 73.9 µM. This compound also had an IC50 in data set [1] of 90.2 µM. Besides, the IC50 in data set [2] stood at 23.9 µM. In data set [3], this compound yielded an IC50 of more than 100 µM. Moreover, the IC50 in data set [4] is more than 100 µM.

Consider `O=c1cc(Cn2cc(Cn3cnc4c(Cl)nccc43)nn2)c2ccc(O)cc2o1` [Compound 5e], for which the IC50 in the data set on A549 (lung carcinoma) is more than 100 µM; in data set [1] it was more than 100 µM; in data set [2], 60.5 µM; in data set [3], more than 100 µM; in data set [4], more than 100 µM.

As to `O=c1cc(Cn2cc(Cn3cnc4ncnc(Cl)c43)nn2)c2ccc(O)cc2o1` [Compound 6e, 4-{[4-((6-Chloro-7H-purin-7-yl)methyl)-1H-1,2,3-triazol-1-yl]methyl}-7-hydroxy-2H-chromen-2-one], the melting point was more than 250 °C. Further, the IC50 with A549 (lung carcinoma) is more than 100 µM. In data set [1], this compound registered an IC50 of more than 100 µM. For the same compound, the IC50 in data set [2] stood at 73.6 µM. Moreover, in data set [3], the IC50 was more than 100 µM. Also, the IC50 in data set [4] is more than 100 µM.

In the case of `FC(F)(F)c1ccc(-n2cc(Cn3cnc4ccnc(Cl)c43)nn2)cc1` [Compound 7c, 4-Chloro-3-{[1-(4-(trifluoromethyl)phenyl)-1H-1,2,3-triazol-4-yl]methyl}-3H-imidazo[4,5-c]pyridine], the melting point lay in the range of 183 to 185 °C. Further, the IC50 with A549 (lung carcinoma) is more than 100 µM. Besides, in data set [1], the IC50 worked out at 69 µM. Also, the IC50 in data set [2] worked out at 19.4 µM. The IC50 in data set [3] was 36.8 µM. Besides, the IC50 in data set [4] came out at 89.2 µM.

For `O=c1cc(Cn2cc(Cn3cnc4ccnc(Cl)c43)nn2)c2ccc(O)cc2o1` [Compound 7e, 4-{[4-((4-Chloro-3H-imidazo[4,5-c]pyridin-3-yl)methyl)-1H-1,2,3-triazol-1-yl]methyl}-7-hydroxy-2H-chromen-2-one], the IC50 in the data set with A549 (lung carcinoma) was more than 100 µM; in data set [1] it was more than 100 µM; in data set [2], 7.62 µM; in data set [3], 8.77 µM; in data set [4] it was more than 100 µM.

`Fc1ccc(-n2cc(Cn3ccc4c(Cl)ncnc43)nn2)cc1` [Compound 8a, 4-Chloro-7-{[1-(4-fluorophenyl)-1H-1,2,3-triazol-4-yl]methyl}-7H-pyrrolo[2,3-d]pyrimidine]: the IC50 in the data set with A549 (lung carcinoma) was 85.4 µM; in data set [1], 8.5 µM; in data set [2], 32.2 µM; in data set [3] it was 39.4 µM; in data set [4], 48.4 µM.

Regarding `Clc1ccc(-n2cc(Cn3ccc4c(Cl)ncnc43)nn2)cc1` [Compound 8b, 4-Chloro-7-{[1-(4-chlorophenyl)-1H-1,2,3-triazol-4-yl]methyl}-7H-pyrrolo[2,3-d]pyrimidine], the IC50 worked out at 64.5 µM in the data set with A549 (lung carcinoma); 44.6 µM in data set [1]; 21 µM in data set [2]; 65.5 µM in data set [3]; 47.7 µM in data set [4].

In the case of `FC(F)(F)c1ccc(-n2cc(Cn3ccc4c(Cl)ncnc43)nn2)cc1` [Compound 8c, 4-Chloro-7-{[1-(4-(trifluoromethyl)phenyl)-1H-1,2,3-triazol-4-yl]methyl}-7H-pyrrolo[2,3-d]pyrimidine], the IC50 in the data set with A549 (lung carcinoma) came out at 46.9 µM; in data set [1], 37.1 µM; in data set [2] it was 4.62 µM; in data set [3] it was 38.8 µM; in data set [4] it was 46.6 µM.

For `Fc1ccccc1-n1cc(Cn2ccc3c(Cl)ncnc32)nn1` [Compound 8d, 4-Chloro-7-{[1-(2-fluorophenyl)-1H-1,2,3-triazol-4-yl]methyl}-7H-pyrrolo[2,3-d]pyrimidine], the melting point is 112 to 114 °C. The same compound came in with an IC50 in the data set with A549 (lung carcinoma) of 69 µM. In data set [1], this compound displayed an IC50 of 65.5 µM. Also, the IC50 in data set [2] was found to be 22.5 µM. For the same compound, the IC50 in data set [3] came to 83.3 µM. This compound came in with an IC50 in data set [4] of 35.2 µM.

`O=c1cc(Cn2cc(Cn3ccc4c(Cl)ncnc43)nn2)c2ccc(O)cc2o1` [Compound 8e, 4-{[4-((4-Chloro-7H-pyrrolo[2,3-d]pyrimidin-7-yl)methyl)-1H-1,2,3-triazol-1-yl]methyl}-7-hydroxy-2H-chromen-2-one]: the melting point lay in the range of 202 to 204 °C. The compound further came in with an IC50 with A549 (lung carcinoma) of 69.2 µM. In data set [1], the IC50 worked out at 73.5 µM. Also, the IC50 in data set [2] was 39.9 µM. In data set [3], this compound registered an IC50 of 33.6 µM. Also, the IC50 in data set [4] came to 36.3 µM.

For the compound `Fc1ccc(-n2cc(Cn3ccc4cc(F)ccc43)nn2)cc1` [Compound 10a, 1-{[1-(4-Fluorophenyl)-1H-1,2,3-triazol-4-yl]methyl}-5-fluoro-1H-indole], the IC50 (in the data set with A549 (lung carcinoma); in data set [1]; in data set [2]; in data set [3]; in data set [4]) was more than 100 µM each time.

Take `Fc1ccc2c(ccn2Cc2cn(-c3ccccc3F)nn2)c1` [Compound 10d, 5-Fluoro-1-{[1-(2-fluorophenyl)-1H-1,2,3-triazol-4-yl]methyl}-1H-indole]: the IC50 with A549 (lung carcinoma) is more than 100 µM; in data set [1], more than 100 µM; in data set [2], more than 100 µM; in data set [3], 82.9 µM; in data set [4], more than 100 µM.

In the case of `Fc1ccc(-n2cc(Cn3cnc4ccccc43)nn2)cc1` [Compound 12a, 1-{[1-(4-fluorophenyl)-1H-1,2,3-triazol-4-yl]met-hyl}-1H-benzo[d]imidazole], the IC50 was determined as 76.3 µM in the data set with A549 (lung carcinoma); 99.9 µM in data set [1]; 91.9 µM in data set [2]; 71.7 µM in data set [3]; 86.5 µM in data set [4].

Consider `FC(F)(F)c1ccc(-n2cc(Cn3cnc4ccccc43)nn2)cc1` [Compound 12c, 1-{[1–(4-(trifluoromethyl)phenyl)-1H-1,2,3-triazol-4-yl]methyl}-1H-benzo[d]imidazole], for which the IC50 in the data set with A549 (lung carcinoma) is 14.2 µM; in data set [1], more than 100 µM; in data set [2] it was more than 100 µM; in data set [3], 30.6 µM; in data set [4], 56.4 µM.

Take `Fc1ccccc1-n1cc(Cn2cnc3ccccc32)nn1` [Compound 12d, 1-{[1–(2-fluorophenyl)-1H-1,2,3-triazol-4-yl]methyl}-1H-benzo[d]imidazole]: the IC50 was 36.2 µM in the data set on A549 (lung carcinoma); more than 100 µM in data set [1]; 30.6 µM in data set [2]; 21.9 µM in data set [3]; 34.7 µM in data set [4].

Consider `O=c1cc(Cn2cc(Cn3cnc4ccccc43)nn2)c2ccc(O)cc2o1` [Compound 12e, 4-{4-[((1H-benzo[d]imidazol-1-yl)methyl)-1H-1,2,3-triazol-1-yl]methyl}-7-hydroxy-4a,8a-dihydro-2H-chromen-2-on], for which the IC50 (in the data set with A549 (lung carcinoma); in data set [1]; in data set [2]; in data set [3]; in data set [4]) was more than 100 µM each time.

Source of the values: publication PMC6009932, “Small molecule purine and pseudopurine derivatives: synthesis, cytostatic evaluations and investigation of growth inhibitory effect in non-small cell lung cancer A549” (Journal of Enzyme Inhibition and Medicinal Chemistry, 2017).
